# According to patent US10040822B2, “Neuroprotective composition and method of use” (Brown University, priority 2012, dated 2018):
# Where no end group is shown, it is not given here.
# Legend:
# [1] = test system: neurons in the spinal cord and in the brain; experiment: Intrathecal and intraventricular injection of fluorescent-tagged peptides, distribution in spinal cord and brain; format: in vivo; details: fluorescent-tagged peptide
# Description: Testing addressed intrathecal and intraventricular injection of fluorescent-tagged R(7) (SEQ ID NO: 5) and C-s-s-C-R(7) (“C-R(7)” disclosed as SEQ ID NO: 8). […] This approach is a workable option for quick delivery to prevent both stroke or traumatic injury to these tissues.
# [2] = test system: NMDA-insult to the retina; experiment: In vivo rat retinal toxicity model of NMDA-induced chemical stroke; details: for long-term protection against NMDA-induced retinal ganglion cell death: 14-21 day post-insult, single dosing; for long-term protection against NMDA-induced retinal ganglion cell death / short-term protection against NMDA-insult / NMDA-induced loss of plasma membrane selectivity in NMDA-receptive neurons / NMDA-induced caspase activation / NMDA-induced mitochondrial-induced oxidative stress in the retina / NMDA-induced poly-(ADP)ribosylolation: rat retina; for short-term neuronal cell death signaling: compound administered simultaneously with NMDA-induced chemical stroke; for NMDA-induced loss of plasma membrane selectivity in NMDA-receptive neurons: out to 8 hrs post-insult, compound given simultaneously with NMDA; for NMDA-induced caspase activation / NMDA-induced mitochondrial-induced oxidative stress in the retina / NMDA-induced poly-(ADP)ribosylolation: short-term, 2-4 hrs post-NMDA-insult
# Description: 7. Blockade of PARP activity attenuates poly(ADP-ribosyl)ation but offers only partial neuroprotection against NMDA-induced cell death in the rat retina. (Goebel and Winkler, J Neuro Chem, 98:1732-1745, 2006) (NMDA-induced chemical stroke in vivo rat retinal neurotoxicity model).
# In a test model, the retina was protected from NMDA-induced chemical stroke. […] The compositions of this invention are useful in a variety of clinical situations, most of which are characterized by neurological insult or cellular insult typified by mitochondrial damage. Without being bound by any particular theory, untreated mitochondrial damage is believed to lead to generation of free radical species. The compositions of this invention appear to avert or curtail oxidative stress in the retina following NMDA-insult by reducing mitochondrial originated free radical generation. Without being bound by any particular theory, such activity is believed to be significant in neuroprotection arising from the compositions of this invention.
# Data establish that the compounds of the present invention protect the neural tissue (retina) against a strong NMDA-insult, with particular reference to R(7) (SEQ ID NO: 5), CR(7) (SEQ ID NO: 8) and C-s-s-CR(7) (“CR(7)” disclosed as SEQ ID NO: 8).
# [3] = test system: stroke; experiment: Stroke patient treated i.v. with polyarginine (Examples 1, 2); format: in vivo, human
# Protocol: A person enters the emergency room and is diagnosed with an ischemic event involving the middle cerebral artery, with symptomatology onset being under 1 hr. Immediately, the patient was administered an i.v. supplemented with poly-arginine (R(7)C-s-s-C (“R(7)C” disclosed as SEQ ID NO: 12), 5 mg/kg) while blood supply to the restricted area is restored.
# A person is revived following stoke in their home by EMS and is rushed to the nearest hospital 80 miles away. Upon arriving at the hospital it is determined that the patient is showing signs of weakness on their left side. […] They are immediately started an i.v. and administered poly arginine (R(7) (SEQ ID NO: 5))@ 4 mg/kg/hr over a period of 5 days to arrest post-stroke neuronal damage. The patient is monitored for recovery signs.
# [4] = test system: spinal cord injury; experiment: Spinal cord injury patient treated i.v. with polyarginine (Example 8); format: in vivo, human; details: Example 8, spinal cord injury patient, i.v. 0.15 mg/kg every other day for 30 days
# Protocol: A person presents with a spinal cord injury following an automobile accident. The subject is conscious but unable to move their legs. […] A Th(11)-L(2) laminectomy is performed along with retrieval of foreign bodies and dura repair. Upon admission the patient is administered an i.v. containing R(7)C-s-s-C (“R(7)C” disclosed as SEQ ID NO: 12) peptide at 0.15 mg/kg.
# [5] = test system: Traumatic Brain Injury; experiment: TBI patient treated i.v. with polyarginine (Example 3); format: in vivo, human; details: Example 3, severe concussion patient, i.v. 0.05 mg/kg, 3-5 days
# Protocol: A high school football player is rushed to the emergency room of a local hospital suffering from a severe concussion following a helmet to helmet impact with an opposing player. The patient is initially unconscious on the field for over 20 min. EMS personnel arrived to find the patient responding to stimuli, but completely disoriented and unable to coordinate muscle movement, articulate speech or focus eye movements. Upon arriving at the ER, the patient is administered an i.v. containing R(7)C-s-s-C (“R(7)C” disclosed as SEQ ID NO: 12) peptide at 0.05 mg/kg. Delivery of the peptide continued until brain swelling resulting from the impact returns to normal state (3-5 days). Without being bound by any particular theory, the therapeutic is to arrest neuronal cell death resulting from these documented post-traumatic effects.
# [6] = test system: HEK293 cells; experiment: Cultured HEK293 cells pretreated with peptide, chemically induced excitotoxic challenge, mitochondrial readouts; format: cell-based; details: for oxidative stress following excitotoxic challenge / stress-induced hyperpolarization of the mitochondrial membrane potentials: HEK293 cells pretreated with peptide, compared with sham-treated controls; for mitochondrial oxidative stress: further studies by the applicant's group, system not given
# [7] = test system: retinal neurons; experiment: Uptake of fluorescent-tagged peptides into retinal neurons after injection into the vitreal chamber; format: in vivo; details: intravitreal, rat
# Protocol: Attention is drawn to the uptake into brain tissues under in vivo conditions Fluorescent-tagged R(7) (SEQ ID NO: 5) and C-s-s-CR(7) (“CR(7)” disclosed as SEQ ID NO: 8) were injected into the vitreal chamber of a rat eyes and analyzed for specific uptake into retinal neurons at multiple time points post-injection. […] At longer time points (2-4 hrs post injection) the accumulation of the labeled peptides accumulated within the cytoplasm of the majority of neurons in the inner half of the retina with preferential accumulations being localized to small membrane-bound organelles surrounding the nucleus of both ganglion cells and amacrine cells as well as in exiting ganglion cell axons.
# [8] = test system: glaucoma; experiment: Glaucoma patient treated with CR(7) eye drops (Example 9); format: in vivo, human; details: Example 9, glaucoma patient, eye drops 1.25 μg per 20 μl drop, two drops morning and night, chronic
# Protocol: A person presents with a complaint of blurry vision in their left eye for 1 week. Their IOP is above 21 mmHg. A diagnosis of glaucoma is made.
# Effort is made to surgically reduce IOP. In post-surgical monitoring, IOP levels remain above normal excepted levels. To prevent retinal damage resulting from the prolonged exposure to elevated IOP. the patient is administered CR(7) (SEQ ID NO: 8) in the form of eye drops suspended in a corneal penetrating lipophilic suspension. Each 20 μl drop contains 1.25 μg of CR(7) (SEQ ID NO: 8) The total applied/treatment is 2.5 μg. Two drops are administered morning and two drops at night
# [9] = Example 2, post-stroke patient, i.v. 4 mg/kg/hr over 5 days, observed over the next 30 days
Compound,long-term protection against NMDA-induced retinal ganglion cell death [2],short-term protection against NMDA-insult [2],oxidative stress following excitotoxic challenge [6],stress-induced hyperpolarization of the mitochondrial membrane potentials [6],mitochondrial oxidative stress [6],short-term neuronal cell death signaling [2],NMDA-induced loss of plasma membrane selectivity in NMDA-receptive neurons [2],NMDA-induced caspase activation [2],NMDA-induced mitochondrial-induced oxidative stress in the retina [2],NMDA-induced poly-(ADP)ribosylolation [2],also measured
"fluorescent-tagged CR(7): fluorescent-tagged CR(7) (SEQ ID NO: 8) (CRRRRRRR; also: fluorescent tag, position not given here)",,,,,,,,,,,accumulation in neurons of spinal cord and brain [1]: Preferential accumulation was noted in the neurons located within the hippocampus and cerebral cortex; crossing of the pia matter glial barrier [1]: readily crosses the pia matter glial barrier
d-CdR(7): d-isomer of CR(7) (SEQ ID NO: 13) (CRRRRRRR; D-amino acids; MOD_RES (1)..(7) Residues are D configuration),full short- and long-term neuroprotection,full short- and long-term neuroprotection,,,,,,,,,
R(7)C-s-s-C: R(7)C (SEQ ID NO: 12) with second cysteine linked by disulfide to the terminal cysteine (RRRRRRRC(Cys); also: extra cysteine disulfide-linked to Cys8),,,,,,,,,,,"CT/MRI imaging of the affected region ([3]; Example 1, ischemic stroke patient, i.v. 5 mg/kg): no signs of lesioning in the affected region; daily testing of cognitive and motor systems ([3]; Example 1, ischemic stroke patient, i.v. 5 mg/kg, onset under 1 hr): no deficits in physical or mental capacities; recovery of leg movement [4]: substantial ability to move their legs is returned; TBI and post-concussion symptoms [5]: remains symptom free of TBI and post-concussion effects"
R(7)-C: 7 arginine peptide with C-terminus cysteine (SEQ ID NO: 12) (RRRRRRRC; MOD_RES (1)..(7) Residues may be D or L configuration),both short and long-term protection,both short and long-term protection,,,,,,,,,
"d-C-s-s-dCdR(7): d-isomer of C-s-s-CR(7) (CRRRRRRR; D-amino acids, disulfide-linked; MOD_RES (1)..(7) Residues are D configuration)",full short- and long-term neuroprotection,full short- and long-term neuroprotection,,,,,,,,,
RRRRRRR [R(7)],less effective,full short-term protection,significant attenuation,significant attenuation,significantly prevented,block,blocked,fully block,fully block,fully block,"muscle tone and limb recovery [3, 9]: increased muscle tone on the left side; speech pattern recovery [3, 9]: Improvement in their speech pattern"
"Fluorescent-tagged R(7): Fluorescent-tagged R(7) (SEQ ID NO: 5) (RRRRRRR; also: fluorescent tag, position not given here)",,,,,,,,,,,"accumulation in retinal neurons and glia cells of ganglion and inner nuclear layers ([7]; fluorescent-tagged peptide, 30 min following injection): significant accumulations; subcellular localisation of labeled peptide (double labeling) ([7]; 2-4 hrs post injection): majority of these labeled puncta colocalize with mitochondrial-specific markers"
C-R-R-R-R-R-R-R (CRRRRRRR) [CR(7)],not significantly different from results obtained from untreated or sham-treated control retinas,,significant attenuation,significant attenuation,significantly prevented,block,blocked,fully block,fully block,fully block,"neuroprotection ([2]; general statement, retina, NMDA-insult): effective when the peptide is made with either l- or d-amino acids; progression of neuronal cell death [8]: no progression of neuronal cell death is detected"
"N=C(N)NCCCC(NC(=O)[C@H](CCCNC(=N)N)NC(=O)C(N)CSSC[C@H](N)C(=O)O)C(=O)N[C@@H](CCCNC(=N)N)C(=O)NC(CCCNC(=N)N)C(=O)N[C@@H](CCCNC(=N)N)C(=O)NC(CCCNC(=N)N)C(=O)N[C@@H](CCCNC(=N)N)C(N)=O (stereo partly shown) [C-s-s-CR(7), C-s-s-C-R-R-R-R-R-R-R]",not significantly different from results obtained from untreated or sham-treated control retinas,,significant attenuation,significant attenuation,significantly prevented,block,blocked,fully block,fully block,fully block,
